Test results reported in patent US8618289B2 (Ambit Biosciences Corporation, priority 2008, dated 2013).
Structures can show the parent of a compound that is named as a salt. Where two headings read alike, the source gives them in different places.

Key:
[1] = system: MEK1 phosphorylation in the A375 human melanoma cell line; test: cells; conditions: A-375, read-out: pMEK IC50
Method: A375 cells (from American Type Culture Collection) were plated at 50,000 cells per well in DMEM (Mediatech) with 10% fetal bovine serum (Omega Scientific) into a 96 well plate and incubated overnight in a 37° C. incubator with 10% CO2. The cells were then washed with PBS and the medium replaced with 0.5% FBS for incubation overnight. […] The cells were incubated with compound or control for two hours at 37° C. The compound solution was aspirated off and the cells washed with cold PBS. […] The plate was centrifuged for 30 minutes to pellet out the cell debris. The cleared lysates were transferred to a 96-well Nunc plate and the ELISA protocol described by the manufacturer in Catalog #KHO0321 or KHO0291 was followed.

RAF kinases [2] = molecular target: T1, RAF kinases (Homo sapiens, UniProt P15056, V600E); test: biochemical
A375 cells = test: cells; conditions: Homo sapiens, A-375, read-out: A375 Viability EC50
RAF kinases [3] = molecular target: T1, RAF kinases; conditions: read-out: BRAF V600E Kd; BRAF V600E
RAF kinases [4] = molecular target: RAF kinases (Homo sapiens, UniProt P15056); test: biochemical
Sequence of RAF kinases (Homo sapiens, UniProt P15056) (P15056 whole entry): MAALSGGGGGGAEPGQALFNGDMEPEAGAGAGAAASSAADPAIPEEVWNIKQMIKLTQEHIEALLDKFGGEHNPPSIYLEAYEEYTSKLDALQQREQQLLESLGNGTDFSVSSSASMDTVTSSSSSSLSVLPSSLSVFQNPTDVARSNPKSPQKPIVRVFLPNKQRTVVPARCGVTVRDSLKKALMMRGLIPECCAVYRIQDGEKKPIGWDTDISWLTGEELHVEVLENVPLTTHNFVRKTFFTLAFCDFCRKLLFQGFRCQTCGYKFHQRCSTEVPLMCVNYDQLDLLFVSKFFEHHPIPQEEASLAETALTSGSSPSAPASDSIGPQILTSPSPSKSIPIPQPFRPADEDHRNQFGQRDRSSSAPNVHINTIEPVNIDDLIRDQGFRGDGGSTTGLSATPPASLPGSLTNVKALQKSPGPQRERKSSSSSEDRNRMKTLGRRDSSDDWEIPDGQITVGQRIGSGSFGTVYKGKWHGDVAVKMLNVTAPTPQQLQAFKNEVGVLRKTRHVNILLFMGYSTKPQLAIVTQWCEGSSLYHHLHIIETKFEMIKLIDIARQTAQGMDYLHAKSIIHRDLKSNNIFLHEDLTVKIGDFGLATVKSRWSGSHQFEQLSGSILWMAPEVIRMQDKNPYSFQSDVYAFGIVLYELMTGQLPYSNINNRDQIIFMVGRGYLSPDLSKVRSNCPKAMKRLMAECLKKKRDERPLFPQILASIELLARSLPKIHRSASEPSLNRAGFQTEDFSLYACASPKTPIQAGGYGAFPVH

RAF kinases [5] = molecular target: RAF kinases (Homo sapiens, UniProt P04049); test: biochemical
Sequence of RAF kinases (Homo sapiens, UniProt P04049) (P04049 whole entry): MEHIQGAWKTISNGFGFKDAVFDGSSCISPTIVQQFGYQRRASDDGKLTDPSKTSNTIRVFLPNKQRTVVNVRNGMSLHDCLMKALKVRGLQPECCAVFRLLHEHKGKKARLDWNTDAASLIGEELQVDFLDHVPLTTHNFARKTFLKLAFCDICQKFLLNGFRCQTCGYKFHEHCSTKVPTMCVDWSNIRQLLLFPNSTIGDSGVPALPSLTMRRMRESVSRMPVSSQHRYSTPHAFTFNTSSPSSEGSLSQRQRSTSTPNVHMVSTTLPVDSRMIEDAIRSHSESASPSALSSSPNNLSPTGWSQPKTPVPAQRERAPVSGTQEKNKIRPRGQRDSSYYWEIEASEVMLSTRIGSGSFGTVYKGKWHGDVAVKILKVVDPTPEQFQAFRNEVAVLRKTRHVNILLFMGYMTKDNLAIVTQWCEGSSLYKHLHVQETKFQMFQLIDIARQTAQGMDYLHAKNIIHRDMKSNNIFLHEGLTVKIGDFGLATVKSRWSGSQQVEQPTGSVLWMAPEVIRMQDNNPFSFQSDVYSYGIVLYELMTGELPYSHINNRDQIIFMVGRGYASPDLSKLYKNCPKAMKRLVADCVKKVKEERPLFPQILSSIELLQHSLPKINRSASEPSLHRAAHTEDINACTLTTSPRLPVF

T1 sequence (P15056 whole entry V600E): as the sequence (P15056 whole entry) above, with V600E counted along it

IC50 [1]	Kd (RAF kinases [2])	EC50 (A375 cells)	Kd (RAF kinases [3])	Kd (RAF kinases [4])	Kd (RAF kinases [5])	SMILES
250 to 500 nM	250 to 500 nM	500 to 1000 nM				COc1cc2ncnc(Sc3cccc(NC(=O)Nc4ccc(Cl)c(C(F)(F)F)c4)c3)c2cc1OC [Ex 186, 1-(4-chloro-3-(trifluoromethyl)phenyl)-3-(3-(6,7-dimethoxyquinazolin-4-ylthio)phenyl)urea]
< 250 nM		500 to 1000 nM	< 250 nM	250 to 500 nM	250 to 500 nM	COc1cc2ncnc(Sc3cccc(NC(=O)Nc4ccc(OC)c(C(F)(F)F)c4)c3)c2cc1OCCCN1CCS(=O)(=O)CC1 [Ex 246, 1-(4-methoxy-3-(trifluoromethyl)phenyl)-3-(3-(7-methoxy-6-(3-(4,4-dioxothiomorpholino)propoxy)quinazolin-4-ylthio)phenyl)urea]
< 250 nM	500 to 1000 nM	250 to 500 nM				COc1cc2ncnc(Oc3cccc(NC(=O)Nc4cc(C(F)(F)F)nn4-c4ccccc4)c3)c2cc1OC [Ex 161, 1-[3-(6,7-dimethoxyquinazolin-4-yloxy)phenyl]-3-[1-phenyl-3-(trifluoromethyl)-1H-pyrazol-5-yl]urea]
< 250 nM	500 to 1000 nM	< 250 nM				COc1cc2ncnc(Oc3cccc(NC(=O)Nc4cc(C(F)(F)F)nn4-c4ccc(C)cc4)c3)c2cc1OC [Ex 172, 1-[3-(6,7-dimethoxyquinazolin-4-yloxy)phenyl]-3-[1-p-tolyl-3-(trifluoromethyl)-1H-pyrazol-5-yl]urea]
< 250 nM		> 1000 nM	< 250 nM	250 to 500 nM	250 to 500 nM	COCCOc1cc2ncnc(Sc3cccc(NC(=O)Nc4cc(C(C)(C)C)no4)c3)c2cc1OCCOC [Ex 247, 1-(3-(6,7-bis(2-methoxyethoxy)quinazolin-4-ylthio)phenyl)-3-(3-tert-butylisoxazol-5-yl)urea]
< 250 nM			< 250 nM	500 to 1000 nM	500 to 1000 nM	CCOc1cc2ncnc(Oc3cccc(NC(=O)Nc4cc(C(C)(C)C)nn4-c4ccccc4)c3)c2cc1OC [Ex 387, 1-(3-tert-butyl-1-phenyl-1H-pyrazol-5-yl)-3-(3-(7-ethoxy-6-methoxyquinazolin-4-yloxy)phenyl)urea]
< 250 nM		< 250 nM	< 250 nM	500 to 1000 nM	250 to 500 nM	COc1cc2ncnc(Oc3cccc(NC(=O)Nc4cc(C(C)(C)C)nn4-c4cnccc4C)c3)c2cc1OC [Ex 303, 1-(3-tert-butyl-1-(4-methylpyridin-3-yl)-1H-pyrazol-5-yl)-3-(3-(6,7-dimethoxyquinazolin-4-yloxy)phenyl)urea]
500 to 1000 nM		> 1000 nM	< 250 nM	250 to 500 nM	250 to 500 nM	COCCOc1cc2ncnc(Oc3cccc(NC(=O)Nc4cc(C(C)C)no4)c3)c2cc1OC [Ex 215, 1-(3-isopropylisoxazol-5-yl)-3-(3-(6-methoxy-7-(2-methoxyethoxy)quinazolin-4-yloxy)phenyl)urea]
500 to 1000 nM		500 to 1000 nM	< 250 nM	500 to 1000 nM	500 to 1000 nM	COc1cc2c(Oc3cccc(NC(=O)Nc4cc(C(F)(F)F)nn4-c4ccccc4)c3)ncnc2cc1OCCN1CCOCC1 [Ex 396, 1-(3-(6-Methoxy-7-(2-morpholinoethoxy)quinazolin-4-yloxy)phenyl)-3-(1-phenyl-3-(trifluoromethyl)-1H-pyrazol-5-yl)urea]
< 250 nM		250 to 500 nM	< 250 nM	500 to 1000 nM	250 to 500 nM	COCCOc1cc2ncnc(Sc3cccc(NC(=O)Nc4cc(C(C)(CF)CF)on4)c3)c2cc1OC [Ex 230, 1-[5-(1,3-difluoro-2-methylpropan-2-yl)isoxazol-3-yl]-3-{3-[6-methoxy-7-(2-methoxyethoxy)quinazolin-4-ylthio]phenyl}urea]
< 250 nM			< 250 nM	500 to 1000 nM	500 to 1000 nM	COc1cc2ncnc(Oc3cccc(NC(=O)Nc4cc(C(C)(C)C)nn4-c4ccccc4F)c3)c2cc1OC [Ex 372, 1-(3-tert-butyl-1-(2-fluorophenyl)-1H-pyrazol-5-yl)-3-(3-(6,7-dimethoxyquinazolin-4-yloxy)phenyl)urea]
500 to 1000 nM		> 1000 nM	< 250 nM	500 to 1000 nM	250 to 500 nM	COc1cc2ncnc(Oc3cccc(NC(=O)Nc4cc(C(F)(F)F)nn4-c4ccccc4)c3C)c2cc1OC [Ex 291, 1-(3-(6,7-Dimethoxyquinazolin-4-yloxy)-2-methylphenyl)-3-(1-phenyl-3-(trifluoromethyl)-1H-pyrazol-5-yl)urea]
> 1000 nM		> 1000 nM	< 250 nM	250 to 500 nM	250 to 500 nM	COc1cc2ncnc(Oc3cccc(NC(=O)Nc4cnn(C(C)(C)C)c4)c3)c2cc1OC [Ex 252, 1-(1-tert-butyl-1H-pyrazol-4-yl)-3-(3-(6,7-dimethoxyquinazolin-4-yloxy)phenyl)urea]
< 250 nM	500 to 1000 nM					COc1cc2ncnc(Oc3cccc(NC(=O)Nc4cc(C(C)(C)C)nn4-c4ccccc4)c3)c2cc1OC [Ex 153, 1-(3-tert-butyl-1-phenyl-1H-pyrazol-5-yl)-3-(3-(6,7-dimethoxyquinazolin-4-yloxy)phenyl)urea]
< 250 nM		< 250 nM		250 to 500 nM	250 to 500 nM	COc1cc2c(Oc3cccc(NC(=O)Nc4cc(C(C)(C)C)on4)c3)ncnc2cc1OCCCN1CCOCC1 [Ex 27, 1-(5-tert-butylisoxazol-3-yl)-3-(3-(6-methoxy-7-(3-morpholinopropoxy)quinazolin-4-yloxy)phenyl)urea]
< 250 nM		250 to 500 nM		250 to 500 nM	250 to 500 nM	COc1cc2ncnc(Sc3cccc(NC(=O)Nc4cc(C(C)(C)C)on4)c3)c2cc1OCCN1CCN(S(C)(=O)=O)CC1 [Ex 69, 1-(5-tert-butylisoxazol-3-yl)-3-(3-(7-methoxy-6-(2-(4-(methylsulfonyl)piperazin-1-yl)ethoxy)quinazolin-4-ylthio)phenyl)urea]

SMILES	IC50 [1]	Kd (RAF kinases [2])	EC50 (A375 cells)	Kd (RAF kinases [3])	Kd (RAF kinases [4])	Kd (RAF kinases [5])
COc1ccc(-n2nc(C(C)(C)C)cc2NC(=O)Nc2cccc(Oc3ncnc4cc(OC)c(OC)cc34)c2)cc1 [Ex 361, 1-(3-tert-butyl-1-(4-methoxyphenyl)-1H-pyrazol-5-yl)-3-(3-(6,7-dimethoxyquinazolin-4-yloxy)phenyl)urea]	< 250 nM		> 1000 nM	< 250 nM	250 to 500 nM	500 to 1000 nM
CCOc1cc2c(Oc3cccc(NC(=O)Nc4cc(C(C)(C)C)nn4-c4ccccc4)c3)ncnc2cc1OC [Ex 390, 1-(3-tert-butyl-1-phenyl-1H-pyrazol-5-yl)-3-(3-(6-ethoxy-7-methoxyquinazolin-4-yloxy)phenyl)urea]	< 250 nM			< 250 nM	250 to 500 nM	500 to 1000 nM
COCCOc1cc2ncnc(Oc3cccc(NC(=O)Nc4cc(C5CCCC5)no4)c3)c2cc1OC [Ex 207, 1-(3-cyclopentylisoxazol-5-yl)-3-(3-(6-methoxy-7-(2-methoxyethoxy)quinazolin-4-yloxy)phenyl)urea]	> 1000 nM		> 1000 nM	< 250 nM	500 to 1000 nM	250 to 500 nM
COCCOc1cc2ncnc(Sc3cccc(NC(=O)Nc4cc(C(C)(C)F)no4)c3)c2cc1OC [Ex 234, 1-(3-(2-fluoropropan-2-yl)isoxazol-5-yl)-3-(3-(6-methoxy-7-(2-methoxyethoxy)quinazolin-4-ylthio)phenyl)urea]	< 250 nM		> 1000 nM	< 250 nM	250 to 500 nM	250 to 500 nM
CCOc1cc2ncnc(Oc3cccc(NC(=O)Nc4cc(C(F)(F)F)nn4-c4ccccc4)c3)c2cc1OC [Example 384, 1-(3-(7-ethoxy-6-methoxyquinazolin-4-yloxy)phenyl)-3-(1-phenyl-3-(trifluoromethyl)-1H-pyrazol-5-yl)urea]	500 to 1000 nM		250 to 500 nM	< 250 nM	500 to 1000 nM	250 to 500 nM
COc1cc2c(Oc3cccc(NC(=O)Nc4cc(C(C)(C)C)on4)c3)ncnc2cc1O[C@@H]1CCN(C)C1 [Ex 99, (R)-1-(5-tert-butylisoxazol-3-yl)-3-(3-(6-methoxy-7-(1-methylpyrrolidin-3-yloxy)quinazolin-4-yloxy)phenyl)urea mono acetate]	250 to 500 nM		> 1000 nM		250 to 500 nM	250 to 500 nM
COCCOc1ccc2c(Oc3cccc(NC(=O)Nc4cc(C(C)(C)C)on4)c3)ncnc2c1 [Ex 43, 1-(5-tert-butylisoxazol-3-yl)-3-(3-(7-(2-methoxyethoxy)quinazolin-4-yloxy)phenyl)urea]	250 to 500 nM		> 1000 nM		500 to 1000 nM	250 to 500 nM
COc1cc2ncnc(Oc3cccc(NC(=O)Nc4cc(C(C)(C)C)on4)c3)c2cc1OCCN1CCC(CO)CC1 [Ex 17, 1-(5-tert-butylisoxazol-3-yl)-3-(3-(6-(2-(4-(hydroxymethyl)piperidin-1-yl)ethoxy)-7-methoxyquinazolin-4-yloxy)phenyl)urea]	250 to 500 nM		250 to 500 nM		500 to 1000 nM	500 to 1000 nM
COCCOc1cc2c(Oc3cccc(NC(=O)Nc4cc(C(C)(C)C)on4)c3)ncnc2cc1OC [Ex 15, 1-(5-tert-butylisoxazol-3-yl)-3-{3-[7-methoxy-6-(2-methoxyethoxy)quinazolin-4-yloxy]phenyl}urea hydrochloride]	< 250 nM		< 250 nM		250 to 500 nM	250 to 500 nM
COc1cc2c(Oc3cccc(NC(=O)Nc4cc(C(C)(C)C)on4)c3)ncnc2cc1O[C@H]1CCN(C)C1 [Ex 97, (S)-1-(5-tert-butylisoxazol-3-yl)-3-(3-(6-methoxy-7-(1-methylpyrrolidin-3-yloxy)quinazolin-4-yloxy)phenyl)urea mono acetate]	250 to 500 nM		> 1000 nM		250 to 500 nM	500 to 1000 nM
